In patent US10174036B2, “Substituted pyrazoles as JAK inhibitors” (WUXI FORTUNE PHARMACEUTICAL CO., LTD, priority 2015, dated 2019):
Where two headings read alike, the source gives them in different places.

Key:
Type in all cases: biochemical
JAK3 = target: T1, JAK3 (Homo sapiens, UniProt P52333); assay: Test for in vitro activity of JAK3 kinase (LANCE Ultra ULight-JAK-1 peptide)
T1 construct: purchased Life technology
T1 sequence (P52333 1-1124): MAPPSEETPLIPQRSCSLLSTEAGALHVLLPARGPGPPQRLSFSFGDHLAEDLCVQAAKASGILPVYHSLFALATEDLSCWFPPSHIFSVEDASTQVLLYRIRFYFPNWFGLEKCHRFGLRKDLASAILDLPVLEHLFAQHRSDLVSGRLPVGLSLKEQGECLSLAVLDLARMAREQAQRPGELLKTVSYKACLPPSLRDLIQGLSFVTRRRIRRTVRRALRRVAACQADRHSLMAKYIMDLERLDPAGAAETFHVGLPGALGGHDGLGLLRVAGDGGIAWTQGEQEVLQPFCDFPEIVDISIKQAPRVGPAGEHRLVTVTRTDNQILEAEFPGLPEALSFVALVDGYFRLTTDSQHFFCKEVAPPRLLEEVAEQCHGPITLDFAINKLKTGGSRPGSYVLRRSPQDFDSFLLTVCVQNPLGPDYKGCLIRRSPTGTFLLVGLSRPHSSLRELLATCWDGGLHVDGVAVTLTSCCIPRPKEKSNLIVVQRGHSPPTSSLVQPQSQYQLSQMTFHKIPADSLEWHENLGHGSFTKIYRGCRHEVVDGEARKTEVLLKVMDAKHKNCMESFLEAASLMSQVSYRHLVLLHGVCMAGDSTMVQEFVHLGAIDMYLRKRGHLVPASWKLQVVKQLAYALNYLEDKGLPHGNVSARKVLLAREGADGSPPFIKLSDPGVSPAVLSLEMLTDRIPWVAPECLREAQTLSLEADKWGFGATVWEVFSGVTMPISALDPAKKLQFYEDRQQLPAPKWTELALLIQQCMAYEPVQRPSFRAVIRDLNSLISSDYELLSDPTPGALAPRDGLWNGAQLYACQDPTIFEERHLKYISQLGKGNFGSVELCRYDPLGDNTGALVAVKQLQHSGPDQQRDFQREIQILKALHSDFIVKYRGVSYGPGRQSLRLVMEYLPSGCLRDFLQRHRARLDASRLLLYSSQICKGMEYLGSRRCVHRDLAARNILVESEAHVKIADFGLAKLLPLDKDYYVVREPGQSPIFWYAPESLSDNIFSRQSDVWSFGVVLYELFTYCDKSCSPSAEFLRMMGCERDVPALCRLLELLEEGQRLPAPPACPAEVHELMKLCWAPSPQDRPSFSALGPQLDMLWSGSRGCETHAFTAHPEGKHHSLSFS
Protocol: (§1) Test for In Vitro Activity of Jak1, Jak2, and Jak3 Kinase
(§2) Recombinant human […] of JAK1, JAK2 and JAK3 were purchased from Life technology. LANCE Ultra ULight™-JAK-1 (Tyr1023) peptide and LANCE Eu-W1024 Anti-phosphotyrosine (PT66) were purchased from PerkinElmer. Multimode ELISA, Envison(PerkinElmer) reader was used.
0.05 nM of JAK3 Protein kinase, 50 nM of LANCE Ultra ULight™-JAK-1(Tyr1023) peptide, 4 uM of ATP, 50 mM of HEPES (pH 7.5), 10 mM of MgCl2, 1 mM of EGTA, 2 mM of DTT, 0.01% BRIJ-35. […] The reaction was carried out at room temperature for 90 min and the reaction system was 10 ul.
(§3) Determination for Reaction
(§4) 10 ul detection reagent was added to reaction plate, wherein the final concentration of LANCE Eu-W1024 Anti-phosphotyrosine (PT66) was 2 nM, the final concentration of EDTA was […], incubated at room temperature for 60 min, with Envison reader.
(§5) The reading was converted to inhibition ratio (%) by the following formula: the inhibition ratio (%)=([…])/(Max−Min)×100%.

JAK1 = target: T2, JAK1 (Homo sapiens, UniProt P23458); assay: Test for in vitro activity of JAK1 kinase (LANCE Ultra ULight-JAK-1 peptide); conditions: selectivity ratio JAK1 versus JAK2; class symbol
T2 construct: purchased Life technology
T2 sequence (P23458 whole entry): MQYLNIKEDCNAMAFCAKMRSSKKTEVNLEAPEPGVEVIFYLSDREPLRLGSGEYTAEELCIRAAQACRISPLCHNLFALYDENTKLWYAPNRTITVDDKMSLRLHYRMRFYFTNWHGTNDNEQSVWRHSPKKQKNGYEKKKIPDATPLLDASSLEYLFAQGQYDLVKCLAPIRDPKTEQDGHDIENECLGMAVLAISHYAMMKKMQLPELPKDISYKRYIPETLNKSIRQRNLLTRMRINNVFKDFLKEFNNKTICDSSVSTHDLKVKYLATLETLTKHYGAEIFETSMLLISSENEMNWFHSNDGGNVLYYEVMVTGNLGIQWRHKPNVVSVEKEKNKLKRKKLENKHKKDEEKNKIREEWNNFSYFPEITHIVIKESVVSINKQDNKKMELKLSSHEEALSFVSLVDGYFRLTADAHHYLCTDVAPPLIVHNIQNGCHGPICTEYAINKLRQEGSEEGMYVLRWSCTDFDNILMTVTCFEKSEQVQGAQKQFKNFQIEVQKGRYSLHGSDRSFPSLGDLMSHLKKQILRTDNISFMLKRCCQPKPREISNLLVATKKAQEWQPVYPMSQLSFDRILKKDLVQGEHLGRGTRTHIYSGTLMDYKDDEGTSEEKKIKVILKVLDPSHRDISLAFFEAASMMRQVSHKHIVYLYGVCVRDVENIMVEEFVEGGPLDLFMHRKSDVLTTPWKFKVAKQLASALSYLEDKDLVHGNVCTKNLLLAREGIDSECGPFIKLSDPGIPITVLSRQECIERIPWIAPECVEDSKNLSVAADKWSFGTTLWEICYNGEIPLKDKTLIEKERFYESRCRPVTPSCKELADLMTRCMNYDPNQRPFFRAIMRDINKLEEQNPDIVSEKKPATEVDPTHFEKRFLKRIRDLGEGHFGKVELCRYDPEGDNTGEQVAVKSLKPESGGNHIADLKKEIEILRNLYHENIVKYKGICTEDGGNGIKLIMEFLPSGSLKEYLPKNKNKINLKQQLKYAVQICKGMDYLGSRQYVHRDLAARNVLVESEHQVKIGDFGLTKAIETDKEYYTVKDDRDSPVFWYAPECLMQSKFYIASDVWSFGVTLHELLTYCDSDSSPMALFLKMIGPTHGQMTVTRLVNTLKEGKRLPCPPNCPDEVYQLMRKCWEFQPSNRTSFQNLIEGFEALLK
Protocol: as §1, §2
The reaction was carried out at room temperature for 90 min and the reaction system was 10 ul.
as §3, §4, §5

JAK2 = target: T3, JAK2 (Homo sapiens, UniProt O60674); assay: Test for in vitro activity of JAK2 kinase (LANCE Ultra ULight-JAK-1 peptide)
T3 construct: purchased Life technology
T3 sequence (O60674 whole entry): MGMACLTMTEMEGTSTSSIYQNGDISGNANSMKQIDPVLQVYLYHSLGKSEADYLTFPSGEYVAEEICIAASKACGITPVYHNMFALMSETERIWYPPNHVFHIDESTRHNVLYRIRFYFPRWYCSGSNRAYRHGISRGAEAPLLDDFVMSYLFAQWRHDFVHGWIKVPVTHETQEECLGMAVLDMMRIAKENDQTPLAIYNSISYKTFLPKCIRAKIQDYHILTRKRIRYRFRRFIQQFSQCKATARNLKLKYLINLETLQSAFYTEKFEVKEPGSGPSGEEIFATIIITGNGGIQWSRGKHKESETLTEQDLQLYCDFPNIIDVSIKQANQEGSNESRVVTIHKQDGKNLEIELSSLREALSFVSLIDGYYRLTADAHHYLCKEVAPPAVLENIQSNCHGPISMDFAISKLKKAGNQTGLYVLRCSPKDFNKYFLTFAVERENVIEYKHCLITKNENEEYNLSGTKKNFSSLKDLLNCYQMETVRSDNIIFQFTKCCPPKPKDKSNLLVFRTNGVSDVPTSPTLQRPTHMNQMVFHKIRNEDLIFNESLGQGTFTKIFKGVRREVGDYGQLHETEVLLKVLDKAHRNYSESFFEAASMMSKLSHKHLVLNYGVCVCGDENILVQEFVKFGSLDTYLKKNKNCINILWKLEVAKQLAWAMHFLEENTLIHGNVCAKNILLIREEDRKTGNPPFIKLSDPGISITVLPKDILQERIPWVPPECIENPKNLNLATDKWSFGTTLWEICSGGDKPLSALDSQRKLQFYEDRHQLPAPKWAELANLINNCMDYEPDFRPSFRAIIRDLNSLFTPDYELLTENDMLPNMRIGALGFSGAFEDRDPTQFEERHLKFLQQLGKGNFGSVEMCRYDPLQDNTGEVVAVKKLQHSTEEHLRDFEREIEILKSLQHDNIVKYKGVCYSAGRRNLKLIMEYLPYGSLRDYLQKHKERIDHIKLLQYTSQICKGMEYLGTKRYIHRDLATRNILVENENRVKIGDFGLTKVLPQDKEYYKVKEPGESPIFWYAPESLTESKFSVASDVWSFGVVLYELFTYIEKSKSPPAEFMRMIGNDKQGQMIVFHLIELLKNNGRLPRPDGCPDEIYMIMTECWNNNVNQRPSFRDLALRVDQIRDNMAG
Protocol: as §1, §2
The reaction was carried out at room temperature for 60 min and the reaction system was 10 ul.
as §3, §4, §5

[1] = selectivity ratio JAK3 versus JAK2, class symbol
[2] = recombinant human JAK2, 12 uM ATP, 60 min, class symbol

| Molecule | JAK3/JAK2 (times) (JAK3; [1]) | JAK1/JAK2 (times) (JAK1) | IC50 (JAK2; [2]) | JAK3/JAK2 (times) (JAK3) | IC50 (JAK2) |
| --- | --- | --- | --- | --- | --- |
| CS(=O)(=O)N1CC(CC#N)(n2cc(-c3cccc4nc(N)sc34)cn2)C1 [WX27, 2-(3-(4-(2-aminobenzo[d]thiazole-7-yl)-1H-pyrazole-1-yl)-(methylsulfonyl)azetidine-3-yl) methyl cyanide] |  | F3 (10 < F3 ≤ 25) |  | F2 (key: 1 ≤ F1 ≤ 5; 5 < F2 ≤ 10; 10 < F3 ≤ 25; 25 < F4 ≤ 100) | < 10 nM |
| CS(=O)(=O)N1CC(CC#N)(n2cc(-c3nccc4nc(NC(=O)CC#N)nn34)cn2)C1 [WX26] | F3 (10 < F3 ≤ 25) | F3 (10 < F3 ≤ 25) | 100 to 1000 nM |  |  |
| N-(5-(1-(3-(cyanomethyl)-1-((methylsulfonyl)azetidine-3-yl)-1H-pyrazole-4-yl)-[1,2,4]triazolo[1,5-c]pyridin-2-yl)-2-methoxyacetamide [WX25] | F2 (5 < F2 ≤ 10) | F3 (10 < F3 ≤ 25) | 100 to 1000 nM |  |  |
| N#CCC1(n2cc(-c3nccc4nc(NC(=O)C5CC(F)(F)C5)nn34)cn2)CN(S(=O)(=O)C(F)(F)F)C1 [WX32, N-[5-[1-[3-(cyanomethyl)-1-(trifluoromethylsulfonyl)azetidin-3-yl]pyrazole-4-yl]-[1,2,4]triazolo[1,5-c]pyrimidin-2-yl]-3,3-difluoro-cyclobutanecarboxamide] | F3 (10 < F3 ≤ 25) | F2 (5 < F2 ≤ 10) | 100 to 1000 nM |  |  |
| CCS(=O)(=O)N1CC(CC#N)(n2cc(-c3nccn4nc(NC(=O)C5CC5)nc34)cn2)C1 [WX31, N-[8-[1-[3-(cyanomethyl)-1-ethylsulfonylazetidin-3-yl]pyrazole-4-yl)-[1,2,4]triazolo[1,5-a]pyrazine-2-yl] cyclopropanecarboxamide] | F3 (10 < F3 ≤ 25) | F2 (5 < F2 ≤ 10) | 100 to 1000 nM |  |  |
| N#CCC1(n2cc(-c3nccc4nc(NC(=O)C5CC5)nn34)cn2)CN(C(=O)C2CC2)C1 [WX11, N-[5-[1-[3-(cyanomethyl)-1-(cyclopropylcarbonyl)azetidine-3-]pyrazole-4-]-[1,2,4]triazoloe[1,5-c]pyrimidine2-] cyclopropane carboxamide] | F3 (10 < F3 ≤ 25) | F2 (5 < F2 ≤ 10) | 100 to 1000 nM |  |  |
| CS(=O)(=O)N1CC(CC#N)(n2cc(-c3nccc4nc(N)nn34)cn2)C1 [WX04, 2-[3-[4-(2-amino-[1,2,4]triazolo[1,5-c]pyrimidin-5-yl)pyrazole-1-yl]-1-methylsulfonyl-cyclobutylamine-3-yl] acetonitrile] | F3 (10 < F3 ≤ 25) | F1 (1 ≤ F1 ≤ 5) | 10 to 100 nM |  |  |
| N#CCC1(n2cc(-c3cccc4ncnn34)cn2)CN(S(=O)(=O)C(F)(F)F)C1 [WX17, 2-[3-[4-([1,2,4]triazolo[1,5-a]pyridin-5-)pyrazole-1-]-1-(trifluoromethylsulfonyl)azetidine-3-]acetonitrile] | F3 (10 < F3 ≤ 25) | F1 (1 ≤ F1 ≤ 5) | 10 to 100 nM |  |  |
| COCC(=O)Nc1nc2ccnc(-c3cnn(C4(CC#N)CN(S(=O)(=O)C(F)(F)F)C4)c3)n2n1 [WX24, N-(5-(1-(3-(cyanomethyl)-1-((trifluoromethyl)sulfonyl)azetidine-3-yl)-1H-pyrazole-4-yl)-[1,2,4]triazolo[1,5-c]pyridin-2-yl)-2-methoxyacetamide] | F4 (25 < F4 ≤ 100) | F3 (10 < F3 ≤ 25) | 10 to 100 nM |  |  |

Further lines, with some results ahead:

| JAK3/JAK2 (times) (JAK3; [1]) | JAK1/JAK2 (times) (JAK1) | IC50 (JAK2; [2]) | Molecule | JAK3/JAK2 (times) (JAK3) | IC50 (JAK2) |
| --- | --- | --- | --- | --- | --- |
| F4 (25 < F4 ≤ 100) | F3 (10 < F3 ≤ 25) | < 10 nM | N#CCC1(n2cc(-c3nccc4nc(NC(=O)C5CC5)nn34)cn2)CN(S(=O)(=O)C(F)F)C1 [WX13, N-[5-[1-[3-(cyanomethyl)-1-(difluoromethylsulfonyl)-azetidine-3-]pyrazole-4-]-[1,2,4]triazoloe[1,5-c]pyrimidine2-]cyclopropane carboxamide] |  |  |
| F3 (10 < F3 ≤ 25) | F1 (1 ≤ F1 ≤ 5) | 10 to 100 nM | N#CCC1(n2cc(-c3nccc4nc(N)nn34)cn2)CN(S(=O)(=O)C(F)(F)F)C1 [WX05, 2-[3-[4-(2-amino-[1,2,4]triazolo[1,5-c]pyrimidin-5-yl)pyrazole-1-yl]-1-(trifluoromethylsulfonyl)cyclobutylamine-3-yl]acetonitrile] |  |  |
| F3 (10 < F3 ≤ 25) | F2 (5 < F2 ≤ 10) | 10 to 100 nM | CS(=O)(=O)N1CC(CC#N)(n2cc(-c3nccc4nc(NC(=O)C5CC5)nn34)cn2)C1 [WX12, N-[5-[1-[3-(cyanomethyl)-1-methanesulfonyl-azetidine-3-]pyrazole-4-]-[1,2,4]triazoloe[1,5-c]pyrimidine2-] cyclopropane carboxamide] |  |  |
| F3 (10 < F3 ≤ 25) | F2 (5 < F2 ≤ 10) | 10 to 100 nM | CCS(=O)(=O)N1CC(CC#N)(n2cc(-c3nccc4nc(NC(=O)C5CC5)nn34)cn2)C1 [WX01, N-[5-[1-[3-(cyanomethyl)-1-ethylsulfonylazetidine-3-yl]pyrazole-4-yl]-[1,2,4]triazolo[1,5-c]pyrimidin-2-yl]cyclopropanecarboxamide] |  |  |
| F3 (10 < F3 ≤ 25) | F1 (1 ≤ F1 ≤ 5) | < 10 nM | N#CCC1(n2cc(-c3nccc4nc(NC(=O)C5CC5)nn34)cn2)CN(S(=O)(=O)C(F)(F)F)C1 [WX02, N-[5-[1-[3-(cyanomethyl)-1-(trifluoromethylsulfonyl)azetidine-3-yl]pyrazole-4-yl]-[1,2,4]triazolo[1,5-c]pyrimidin-2-yl]cyclopropanecarboxamide] |  |  |
| F4 (25 < F4 ≤ 100) | F1 (1 ≤ F1 ≤ 5) | < 10 nM | N#CCC1(n2cc(-c3cccc4nc(NC(=O)C5CC5)nn34)cn2)CN(S(=O)(=O)C(F)(F)F)C1 [WX09, N-(5-(1-(3-(cyanomethyl)-1-(trifluoromethylsulfonyl)azetidine-3-yl)-1H-pyrazole-4-yl)-[1,2,4]triazolo[1,5-a]pyridin-2-yl)cyclopropane formamide] |  |  |
| F3 (10 < F3 ≤ 25) | F1 (1 ≤ F1 ≤ 5) | 10 to 100 nM | CN(C)Cc1cc(C(=O)N2CCC(N3CC(CC#N)(n4cc(-c5cccc6nc(NC(=O)C7CC7)nn56)cn4)C3)CC2)nc(C(F)(F)F)n1 [WX33] |  |  |
| F4 (25 < F4 ≤ 100) | F2 (5 < F2 ≤ 10) | < 10 nM | N#CCC1(n2cc(-c3cccc4nc(NC(=O)C5CC5)nn34)cn2)CN(S(=O)(=O)C(F)F)C1 [WX14, N-[5-[1-[3-(cyanomethyl)-1-(difluoromethylsulfonyl)azetidine-3-]pyrazole-4-]-[1,2,4]triazolo[1,5-c]pyridin-2-]cyclopropyl carboxamide] |  |  |
| F4 (25 < F4 ≤ 100) | F3 (10 < F3 ≤ 25) | < 10 nM | CS(=O)(=O)N1CC(CC#N)(n2cc(-c3cccc4nc(NC(=O)C5CC5)sc34)cn2)C1 [WX28, N-(7-(1-(3-(cyanomethyl)-1-(methylsulfonyl)azetidin-3-yl)-1H-pyrazole-4-yl)benzo[d]thiazole-2-yl) cyclopropanecarboxamide] |  |  |
| F4 (25 < F4 ≤ 100) | F1 (1 ≤ F1 ≤ 5) | < 10 nM | CS(=O)(=O)N1CC(CC#N)(n2cc(-c3cccc4nc(NC(=O)C5CC5)nn34)cn2)C1 [WX15] |  |  |
